The record followed here is US20120322150A1, “Mechanism and Method for Regulating Glycogen Synthase Kinase 3 (GSK3)-Related Kinases” (CARNEGIE INSTITUTION OF WASHINGTON, priority 2009, published 2012).

Peptide text beside a SMILES is read from it. * marks the point of attachment. Cbz = O=C(OCc1ccccc1)*

For assay [1], the system named is BIN2. Description: Immunoblotting of 2-DE of TAP-BIN2 from BL-treated plants. The assay is classed as in vivo, Arabidopsis. Particulars: 0.25 μM BL, 2 hrs, TAP-BIN2 transgenic plants. The text has this:
Total proteins were extracted from BL-treated or untreated 35S::TAP-BIN2 plants for two-dimensional gel electrophoresis (2-DE) as described previously. The amount of BL-treated and untreated TAP-BIN2 proteins was normalized with Western blot. Equal amount of TAP-BIN2 proteins was separated by 2-DE using an immobilized pH gradient gel strip (7 cm, pH 3-10 non-linear) and 7.5% SDS-PAGE gel. The blots were probed with anti-PAP antibody (Sigma, St. Louis, Mo.).
For orientation: In western blotting, separated proteins are transferred to a membrane and probed.

Assay [2] deals with T1, BIN2 (Arabidopsis thaliana, UniProt Q39011).
T1 construct: made in house; host or cells: E. coli
T1 sequence (Q39011 1-380): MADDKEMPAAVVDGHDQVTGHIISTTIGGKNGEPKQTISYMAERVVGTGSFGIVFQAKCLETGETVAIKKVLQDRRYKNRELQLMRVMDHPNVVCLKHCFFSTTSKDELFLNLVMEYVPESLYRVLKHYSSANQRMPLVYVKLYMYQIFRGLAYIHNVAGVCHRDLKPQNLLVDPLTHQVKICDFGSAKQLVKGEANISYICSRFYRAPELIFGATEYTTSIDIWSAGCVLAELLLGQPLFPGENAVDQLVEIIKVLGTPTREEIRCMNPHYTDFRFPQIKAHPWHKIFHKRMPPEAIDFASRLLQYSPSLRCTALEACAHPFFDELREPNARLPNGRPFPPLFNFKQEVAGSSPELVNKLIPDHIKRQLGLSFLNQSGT
The experiment in a line: In vitro BIN2 inhibition assay (BIN2 phosphorylation of BZR1). The assay is classed as biochemical. Particulars: BSU1-YFP immunoprecipitated from plants treated with BL versus untreated plants. The procedure: In vitro BIN2 inhibition assays were performed by 3 hrs co-incubation of MBP-BZR1, GST BIN2, GST BSU1 and ^32P-γATP or pre-incubation of GST-BIN2 with GST-BSU1 for various time followed by adding MBP-BZR1 and 32P-γATP. The examine activities of partial BSU1, N-terminal Kelch (1-363th amino acid) and C-terminal phosphatase (364-793th amino acid) region were used. GST, GST-BSU1, GSTBSU1-Ketch and GST-BSU1-phosphatase were pre-incubated with GST-BIN2 for 1 hr, and further incubated with MBP-BZR1 and ^32P-γATP for 3 hrs.
To test activities of BSU1-YFP, anti-GFP antibody-Protein A beads were used to immunoprecipitate BSU1-YFP from extracts of BSU1-YFP transgenic plants, and non-transgenic wild type plants were used as control. The beads were incubated with GST-BIN2 or GST bin2-1 for 1 hr, and then the beads were removed. The BSU1-treated GST-BIN2 or GST-bin2-1 was further incubated with MBP-BZR1 and ^32P-γATP for 3 hrs.

Assay [3] deals with BIN2. Description: pTyr200 of BIN2 in plants after BL treatment. The assay is classed as in vivo, Arabidopsis. Particulars: in the presence of MG132; 0.2 or 0.25 μM BL. The procedure:
(§1) Plant materials were ground with liquid nitrogen and resuspended in IP buffer (50 mM Tris, pH 7.5, 150 mM NaCl, 5% Glycerol, 1% Triton X-100, 1 mM PMSF and 1× protease inhibitor cocktail (Sigma)). Filtered protein extracts were centrifuged at 20,000 g for 10 min and resulting supernatant was incubated with anti-GFP antibody bound Protein A beads or anti-myc agarose beads for 1 hr. Beads were washed 5 times with washing buffer (50 MM Tris, pH 7.5, 150 mM NaCl, 0.2% Triton X-100, 1 mM PMSF and 1× Protease inhibitor cocktail). The beads were resuspended with a small volume of kinase buffer (20 mM Tris, pH 7.5, 1 mM MgCl2, 100 mM NaCl and) mM DTT) and used for in vitro phosphatase assays, or immunoprecipitated proteins were eluted with buffer containing 2% SDS and analyzed by SDS-PAGE and immunoblotting.
GST-BIN2 or GST-bin2-1 was incubated with MBP-BSU1 or BSU1-YFP beads for 3 Ins and subjected to immunoblotting. pTyr200 residue of BIN2 was detected by anti-phospho-GSK3a/f3 (Tyr279/216) monoclonal antibody, 5G-2F (Millipore, Temecula, Calif.) and re-probed with HRP conjugated anti-GST antibody (Santa Cruz Biotechnology, Santa Cruz, Calif.). The det2 plants were treated with 0.2 μM BL after 1 hr incubation with 10 μM MG 132. AntiBIN2 serum was developed in rabbits using GST-BIN2 as an immunogen. Monoclonal anti-GSK3α/β antibody was purchased from Invitrogen (Carlsbad, Calif.).

The test system of assay [4] is BIN2. The experiment in a line: BIN2-myc / bin2-1-myc protein level in transformed tobacco leaves. It is filed as in vivo. The note with it: 1 μM BL for 1 hr. The protocol: Transformation by Agrobacterium infiltration, observations of subcellular localization and BiFC signal in tobacco or Arabidopsis were performed as described previously 5. Fluorescence of YFP was visualized by using a spinning-disk confocal microscope (Leica Microsystems, Heerbruag, Germany).

The test system of assay [5] is BIN2. The experiment in a line: BIN2-myc / bin2-1-myc degradation in transgenic plants. It is filed as in vivo, Arabidopsis. The protocol: as §1
Assay [6] deals with AtSK12. Description: AtSK12 protein accumulation in transgenic plants. It is filed as in vivo, Arabidopsis. Also noted: dose or concentration left out as unconfirmed. Particulars: AtSK12-myc plants; BRZ medium for 5 days; BL for 30 min. The procedure: as §1
The subject of assay [7] is AtSK12. The experiment in a line: pTyr dephosphorylation of AtSK12 in plants. The note with it: 10 μM MG132 then 0.25 μM BL. It is filed as in vivo, Arabidopsis. The protocol:
as §1

For the next assay, the system named is BSU1 and BIN2. Description: Co-immunoprecipitation of BSU1-YFP and BIN2-myc after BL treatment. It is filed as in vivo, Arabidopsis. Particulars: plants grown on BRZ, 10 μM MG-132 1 hr, 0.2 μM BL 15 min. The protocol:
as §1

For a further assay, the target named is T2, PP1 (Homo sapiens, UniProt P36873).
T2 construct: made in house; host or cells: E. coli
T2 sequence (P36873 whole entry): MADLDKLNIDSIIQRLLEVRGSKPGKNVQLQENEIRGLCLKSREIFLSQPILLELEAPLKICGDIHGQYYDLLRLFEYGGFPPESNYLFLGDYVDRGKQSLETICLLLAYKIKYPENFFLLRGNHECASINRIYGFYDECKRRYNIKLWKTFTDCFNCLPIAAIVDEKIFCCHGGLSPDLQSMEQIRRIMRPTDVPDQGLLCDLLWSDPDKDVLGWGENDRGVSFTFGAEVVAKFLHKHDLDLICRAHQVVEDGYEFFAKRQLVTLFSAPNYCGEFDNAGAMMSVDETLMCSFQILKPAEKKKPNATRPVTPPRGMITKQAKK
Description: Inhibition of PP1 activity on BIN2. It is filed as biochemical, mammalian. The procedure: (§2) It was next examined whether the mammalian homolog to BSU1, PP1, would dephosphorylate BIN2. A GST-tagged BIN2 was isolated from cells and incubated with PP1 purified from E. coli cells expressing the phosphatase.

In assay [8] the target is T1, BIN2. Description: PP1 dephosphorylation of GST-tagged BIN2. It is filed as biochemical. The note with it: PP1 purified from E. coli. The procedure:
as §2

Take `CC(C)[C@H](C)[C@@H](O)[C@H](O)[C@@H](C)[C@H]1CC[C@H]2[C@@H]3COC(=O)[C@H]4C[C@H](O)[C@H](O)C[C@]4(C)[C@H]3CC[C@]12C` [BL, brassinolide]: in the assay on BIN2 [1], the “phosphorylation forms of epitope-tagged BIN2 protein” value is “caused disappearance of the acidic forms and an increase of the basic forms”. For the same molecule, on BIN2 [2], the “BIN2-inhibiting activity of BSU1-YFP from BL-treated plants” value is on record as “more effective inhibition of BIN2 phosphorylation of BZR1”. In addition, in the assay on BIN2 [3], the “phosphorylation of Tyr200 of wild type BIN2 or BIN2-myc in plants” value was “reduced the phosphorylation of Tyr200”. In addition, the “level of BIN2 and bin2-1 proteins” value in the assay on BIN2 [4] is listed as “reduces the level of BIN2 but not bin2-1 proteins”. Further, the “degradation of BIN2 and bin2-1” value in the assay with BIN2 [5] (transgenic plants, 0.25 μM BL for 30 min) is “induces degradation of BIN2 but not bin2-1”. The AtSK12 protein stability result in the assay with AtSK12 [6] is on record as “destabilized”. Also, the “phosphorylation of AtSK12 Tyr233” value in the assay on AtSK12 [7] is recorded as “greatly reduced phosphorylation of AtSK12 Tyr233”. The “interaction of BSU1 and BIN2” value in the assay with BSU1 and BIN2 is “BR-induced interaction of BSU1 and BIN2”.
Consider `CC(O)(c1ccccc1)C(Cc1ccc(Cl)cc1)n1cncn1` (stereo not drawn) [brassinazole], for which the AtSK12 protein stability entry in the assay with AtSK12 [6] is “stabilized”.
Take `CC(C)C[C@@H](C=O)NC(=O)[C@H](CC(C)C)NC(=O)[C@H](CC(C)C)NC(=O)OCc1ccccc1` [MG132] (Cbz-Leu-Leu-Leu-aldehyde): the “BR-induced BIN2 depletion” value in the assay on BIN2 [5] (proteasome inhibitor, 10 μM) is given as “prevents BR-induced BIN2 depletion”.
With manganese chloride, at PP1, the “enzymatic activity of PP1 on BIN2” value is on record as “also inhibited the enxymatic activity of PP1 on BIN2”.
With “PP1: mammalian homolog to BSU1, protein phosphatase-1, purified from E. coli”, the “dephosphorylation of BIN2 tyrosine200” value with BIN2 [8] is “increased dephosphorylation of BIN2 tyrosine200”.
